Experimental data published in patent US20100249123A1, “NOVEL BENZAMIDE DERIVATIVES AS MODULATORS OF THE FOLLICLE STIMULATING HORMONE” (ADDEX PHARMA SA, priority 2007, published 2010).

molecular target: T1, rat follicle stimulating hormone receptor (rFSHR) (Rattus norvegicus, UniProt P20395); experiment: Intracellular cAMP measurement (HTRF) assay, antagonism of EC70 of hFSH; assay type: cell-based; conditions: HEK293 cells expressing rFSHR, 1 ng/ml hFSH (EC70), read-out: Class (IC50 to antagonise an EC70 of FSH receptors agonist such as hFSH)
T1 construct: expressed in transfected cells
T1 sequence (P20395 18-692): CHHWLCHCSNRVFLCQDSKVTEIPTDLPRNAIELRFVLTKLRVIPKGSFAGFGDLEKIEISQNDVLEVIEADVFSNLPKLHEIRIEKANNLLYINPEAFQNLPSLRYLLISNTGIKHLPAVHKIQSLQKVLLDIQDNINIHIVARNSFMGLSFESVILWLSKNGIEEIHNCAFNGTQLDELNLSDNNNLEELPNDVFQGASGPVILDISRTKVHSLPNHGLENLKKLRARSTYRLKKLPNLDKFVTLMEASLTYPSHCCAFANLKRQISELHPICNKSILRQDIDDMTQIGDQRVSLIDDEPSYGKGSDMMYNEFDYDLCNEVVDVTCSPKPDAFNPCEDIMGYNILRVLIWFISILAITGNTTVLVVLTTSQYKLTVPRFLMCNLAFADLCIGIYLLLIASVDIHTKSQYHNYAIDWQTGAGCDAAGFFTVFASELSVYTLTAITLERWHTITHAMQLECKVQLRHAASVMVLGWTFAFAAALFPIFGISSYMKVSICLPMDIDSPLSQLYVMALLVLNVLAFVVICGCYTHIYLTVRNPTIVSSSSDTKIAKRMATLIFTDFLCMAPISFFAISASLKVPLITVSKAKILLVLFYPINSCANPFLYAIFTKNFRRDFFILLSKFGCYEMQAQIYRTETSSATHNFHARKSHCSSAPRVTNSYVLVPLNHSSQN
Description: Intracellular cAMP Measurement Assay
The Intracellular cAMP measurement assay is a functional cell-based assay used to study GPCR function. This method relies on a Time-Resolved Fluorescence (HTRF) assay to measure the cAMP accumulation upon receptor-mediated Gs protein activation in cells expressing recombinant GPCR or in cells from native tissues. In brief, this method is a competitive immunoassay between native cAMP produced by cells and the cAMP labeled with a fluorescent tag. The endogenously produced cAMP competes with exogenous added d2-labelled cAMP for the cAMP binding site on a Eu3+ cryptate labelled anti-cAMP antibody. The d2-labelled cAMP and the Eu^3+ labelled antibody produces a basal fluroresence via HTRF and therefore an intracellular increase in unlabelled cAMP is detected as decrease in this signal. cAMP is one of the most important intracellular mediators. Its concentration in cells can be increased upon binding of many hormones to their receptors. The most studied pathway consists in the release of α-subunit GTP-binding proteins following ligand-receptor interaction, which in turn activates or inhibits the ATP/cAMP conversion function of adenylate cyclase enzyme. cAMP is then involved in many complex regulatory processes such as protein kinase activation or ion channel gating. This method is widely used to study receptor activation of G protein in cells over-expressing GPCRs or in native cells, including FSH receptors expressing cells (Gabriel et al., Assay Drug Dev. Technol., 1, 291-303, 2003).
Transfection and cell culture: The cDNA encoding the rat follicle stimulating hormone receptor (rFSHR), (accession number NM_199237, NCBI Nucleotide database browser) was subcloned into an expression vector containing also the hygromycin resistance gene. Transfection of this vector into HEK293 cells with PolyFect reagent (Qiagen) according to supplier's protocol, and hygromycin treatment allowed selection of antibiotic resistant cells which had integrated stably one or more copies of the plasmid. Positive cellular clones expressing rFSHR were identified in a functional assay measuring cAMP production in cells following stimulation by addition of purified human follicle stimulating hormone (hFSH).
HTRF cAMP assay: On the day of the experiment, cells were detached from the Petri dish and distributed in a low volume, black-walled 384-well plate at a density of 5,000 cells/well in an assay buffer containing 1 mM IBMX to prevent cAMP degradation by cytoplasmic phosphodiesterases. The determination of the cAMP accumulation was performed using an HTRF assay (Trinquet et al., Anal. Biochem., 358, 126-135, 2006). Briefly, cells were incubated for 3 min in the presence of increasing concentrations of negative allosteric modulators (from 1 nM to 60 μM) and then 30 min in the presence of 1 ng/ml of hFSH, an agonist of rat FSH receptor, that has been determined in previous experiments to correspond to the EC70, a concentration that gives 70% of the maximal response of the agonist, and is in accordance with published data (Fox et al., Mol. Endocrin., 15, 378-389, 2001). […] Cells were then lysed by adding the HTRF assay components, the europium cryptate-labeled anti-cAMP antibody, and the XL665-labeled cAMP analog, previously diluted in a HEPES buffer (50 mM, pH 7.0) containing 0.8 M potassium fluoride, 0.2% (w/v) BSA, and 1% (v/v) Triton X-100, a percentage of detergent that ensure complete cell lysis. Assay was then incubated for 1 hr at room temperature, and HTRF signal was measured after excitation at 337 nm, and dual emission at 620 and 665 nm, using a RubyStar fluorimeter (BMG Labtechnologies). Moreover, the fluorescence ratio of an appropriate range of known concentrations of cAMP standards was also included on each assay plate to produce a standard cAMP curve. […]

Structure (SMILES)	IC50 [nM]
COc1ccc(C(=O)Nc2ccc(C(C)(C)C#N)c(-c3ccccn3)c2)cc1OC [Example 183, N-[4-(Cyano-dimethyl-methyl)-3-pyridin-2-yl-phenyl]-3,4-dimethoxy-benzamide]	≥ 1000
COc1ccc(C(=O)Nc2ccc(C(C)(C)CNC(=O)c3cn(C(C)=O)c4ccccc34)cc2)cc1OC [Example 104, 1-Acetyl-1H-indole-3-carboxylic acid{2-[4-(3,4-dimethoxy-benzoylamino)-phenyl]-2-methyl-propyl}-amide]	400 to 1000
CCc1cc(NC(=O)c2ccc(OC)c(OC)c2)ccc1C(C)(C)CNC(=O)c1cnc2[nH]cnc2c1 [Example 198, 3H-Imidazo[4,5-b]pyridine-6-carboxylic acid {2-[4-(3,4-dimethoxy-benzoylamino)-2-ethyl-phenyl]-2-methyl-propyl}-amide]	< 150
COc1ccc(C(=O)Nc2ccc(C(C)(C)CNC(=O)c3ccc4c(c3)n(C)c(=O)n4C)cc2)cc1OC [Example 210]	400 to 1000
COc1ccc(C(=O)Nc2ccc(C(C)(C)CNC(=O)c3nn(C)c4ccccc34)c(Cl)c2)cc1OC [Example 121, 1-Methyl-1H-indazole-3-carboxylic acid{2-[2-chloro-4-(3,4-dimethoxy-benzoylamino)-phenyl]-2-methyl-propyl}-amide]	150 to 400
COc1ccc(C(=O)Nc2ccc(C(C)(CO)CNC(=O)c3cnc4ccccn34)cc2)cc1OC (stereo not drawn) [Example 212, Imidazo[1,2-a]pyridine-3-carboxylic acid {2-[4-(3,4-dimethoxy-benzoylamino)-phenyl]-3-hydroxy-2-methyl-propyl}-amide]	≥ 1000
COc1ccc(C(=O)Nc2ccc(C(C)(C)CNC(=O)c3ccccn3)cc2)cc1OC [Example 74]	150 to 400
COc1ccc(C(=O)Nc2ccc(C(C)(C)CNC(=O)c3cnc4ncccn34)cc2)cc1OC [Example 185]	400 to 1000
COc1ccc(C(=O)Nc2ccc(C(C)(C)C#N)c(-c3cnn(C)c3)c2)cc1OC [Example 205, N-[4-(Cyano-dimethyl-methyl)-3-(1-methyl-1H-pyrazol-4-yl)-phenyl]-3,4-dimethoxy-benzamide]	400 to 1000
CCc1cc(NC(=O)c2ccc(OC)c(OC)c2)ccc1C(C)(C)C#N [Example 133, N-[4-(Cyano-dimethyl-methyl)-3-ethyl-phenyl]-3,4-dimethoxy-benzamide]	< 150
COc1ccc(C(=O)Nc2ccc(Cl)c(C(C)(C)C#N)c2)cc1OC [Example 125, N-[4-Chloro-3-(cyano-dimethyl-methyl)-phenyl]-3,4-dimethoxy-benzamide]	≥ 1000
COc1ccc(C(=O)Nc2ccc(C(C)(C)CNC(=O)c3ccco3)cc2)cc1OC [Example 32]	150 to 400
COc1ccc(C(=O)Nc2ccc(C(C)(C)CNC(=O)c3n[nH]c4ccccc34)c(Cl)c2)cc1OC [Example 113, 1H-Indazole-3-carboxylic acid{2-[2-chloro-4-(3,4-dimethoxy-benzoylamino)-phenyl]-2-methyl-propyl}-amide]	150 to 400

system: not given; experiment: not given; conditions: not given

Structure (SMILES)	melting point [°C]
COc1ccc(C(=O)Nc2ccc(C(C)(C)CN3CCOC3=O)cc2)cc1OC [Example 60, N-{4-[1,1-Dimethyl-2-(2-oxo-oxazolidin-3-yl)-ethyl]-phenyl}-3,4-dimethoxy-benzamide]	190 to 191
COc1ccc(C(=O)Nc2ccc(C(C)(C)C#N)cc2)c(Cl)c1OC [Example 153, 2-Chloro-N-[4-(cyano-dimethyl-methyl)-phenyl]-3,4-dimethoxy-benzamide]	195 to 198
COc1ccc(C(=O)Nc2ccc(C(C)(C)C#N)c(-c3ccncc3)c2)cc1OC [Example 158, N-[4-(Cyano-dimethyl-methyl)-3-pyridin-4-yl-phenyl]-3,4-dimethoxy-benzamide]	196 to 199
COC(=O)NCC(C)(C)c1ccc(NC(=O)c2ccc(OC)c(OC)c2)cc1 [Example 52, {2-[4-(3,4-Dimethoxy-benzoylamino)-phenyl]-2-methyl-propyl}-carbamic acid methyl ester]	67 to 69
COc1ccc(C(=O)Nc2cccc(C3(C#N)CCCC3)c2)cc1OC [Example 14, N-[3-(1-Cyano-cyclopentyl)-phenyl]-3,4-dimethoxy-benzamide]	59 to 61
COc1ccc(C(=O)Nc2ccc(C(C)(C)CNC(=O)c3nc4ccccc4[nH]3)cc2)cc1OC [Example 162, 1H-Benzoimidazole-2-carboxylic acid {2-[4-(3,4-dimethoxy-benzoylamino)-phenyl]-2-methyl-propyl}-amide]	223 to 226
COc1ccc(C(=O)Nc2cccc(C(C)(C)CNC(C)=O)c2)cc1OC [Example 88, N-[3-(2-Acetylamino-1,1-dimethyl-ethyl)-phenyl]-3,4-dimethoxy-benzamide]	132 to 134
COc1ccc(C(=O)Nc2ccc(C(C)(C)C#N)cc2)cc1OC [Example 1, N-[4-(Cyano-dimethyl-methyl)-phenyl]-3,4-dimethoxy-benzamide]	139 to 141
COc1ccc(C(=O)Nc2ccc(C(C)(C)C(N)=O)cc2)cc1OC [Example 21, N-[4-(1-Carbamoyl-1-methyl-ethyl)-phenyl]-3,4-dimethoxy-benzamide]	193 to 195
COc1cc(C(C)(C)C#N)ccc1NC(=O)c1ccc(OC)c(OC)c1 [Example 75, N-[4-(Cyano-dimethyl-methyl)-2-methoxy-phenyl]-3,4-dimethoxy-benzamide]	110 to 112
COc1ccc(C(=O)Nc2ccc(C3(CNC(C)=O)CC3)cc2)cc1OC [Example 54, N-{4-[1-(Acetylamino-methyl)-cyclopropyl]-phenyl}-3,4-dimethoxy-benzamide]	204 to 206
COc1cc(Cl)c(C(=O)Nc2ccc(C(C)(C)C#N)cc2)cc1OC [Example 155, 2-Chloro-N-[4-(cyano-dimethyl-methyl)-phenyl]-4,5-dimethoxy-benzamide]	142 to 144
COc1ccc(C(=O)Nc2ccc(C(C)(C)c3noc(COc4ccccc4)n3)cc2)cc1OC [Example 53, 3,4-Dimethoxy-N-{4-[1-methyl-1-(5-phenoxymethyl-[1,2,4]oxadiazol-3-yl)-ethyl]-phenyl}-benzamide]	165 to 167
COc1ccc(C(=O)Nc2ccc(C(C)(C)CNC(C)=O)cc2)cc1OC [Example 26, N-[4-(2-Acetylamino-1,1-dimethyl-ethyl)-phenyl]-3,4-dimethoxy-benzamide]	195 to 197
